Source: patent US4281121A, “1,3,4-Thiadiazole-2-carboxylic acid derivatives, process for making the same and fungicidal and nematocidal compositions containing same” (Schering Aktiengesellschaft, priority 1978, dated 1981)
Read-outs that look alike come from different tables or passages of the source.

Experiments:
Pythium ultimum = experiment: Threshold concentration test for use of the compounds against Pythium ultimum (infested soil, garden peas); format: in vivo; set-up: key to root evaluation (1-4): 4: white roots without fungous necrosis; 3: white roots, minor fungous necrosis; 2: brown roots, already more pronounced fungous necrosis; 1: heavy fungous necrosis, roots rotted; conditions: for root evaluation (1-4): 3 weeks; for number of sound peas: 20 grains per dish, 3 weeks at 20-24° C.
Procedure: Threshold concentration test for use of the compounds against Pythium ultimum
A 20% concentration of certain pulverulent active agents as listed below were mixed in uniform manner into a soil which had been heavily infested by Pythium ultimum. The thus treated soil was then placed into clay dishes of a capacity of 0.5 l earth. Without any intermediate time lapse 20 grain of garden peas (Pisum sativum L. convar. medullare Alef.) of the type "Wunder von Kelvedon" were then seeded into each of the clay dishes. After a cultivation period of three weeks at 20° to 24° C. in a hothouse the number of sound peas was determined and a root evaluation was carried out. The active agents amounts and results appear from the following table.
(§1) The root evaluation was carried out on a scale from 1 to 4 as follows: […]

Fusarium avenaceum = experiment: Threshold concentration test in case of Fusarium avenaceum (infested soil, garden peas); format: in vivo; conditions: for number of sound peas: 20 grains per dish, 18 days at 20-24° C.; for root evaluation (1-4): 18 days
Procedure: Threshold concentration test in case of Fusarium avenaceum
A 20% pulverulent active agent of the type further identified in the table below was mixed in uniform manner with a soil which had been heavily infested with Fusarium avenaceum. The thus treated soil was then placed into clay dishes of a capacity of 0.5 l of earth. Each dish was seeded without any intervening time with 20 grains of garden peas (Pisum sativum L. convar. medullare Alef.) of the type "Wunder von Kelvedon". After a cultivation time of 18 days at 20° to 24° C. in a hot house the number of sound peas was determined and a root evaluation was carried out. The active agents employed, the amounts and results appear from the following table.
as §1

Tilletia caries = experiment: Treatment of oat seeds infested with Tilletia caries (spore germination); format: in vivo
[1] = test system: Helminthosporium gramineum; experiment: Seed treatment in open field tests for infestation by Helminthosporium gramineum (barley); format: in vivo; conditions: summer barley; 50 g active agent/100 kg barley; about 3 months
Procedure: Seed treatment in open field tests for infestation by Helminthosporium gramineum
The active agents were used in the form of pulverulent compositions. After about 8 months in case of winter barley and after about 3 months in case of summer barley the infested plants were counted and the activity was calculated by the formula [formula]

Plasmopara viticola = experiment: Prophylactic leaf treatment of grapevines in the hothouse against Plasmopara viticola; format: in vivo
Procedure: Effects of prophylactic leaf treatment of grapevines in the hothouse against Plasmopara viticola
Young grapevine plants having from 5 to 8 leaves were sprayed dripping wet with the concentrations of active agents stated in the table below. After drying of the spray deposit the leaves were sprayed with an aqueous suspension of sporangia of the fungus (about 20,000 per ml); the spraying was applied to the bottom side of the leaves. The plants were then immediately incubated in a hothouse at a temperature of 22° to 24° C. and at maximum water saturation in the atmosphere. Beginning with the second day the humidity of the air was reduced for 3 to 4 days to normal level (30 to 70% saturation) and was then maintained for another day on the level of full saturation. Subsequently, the percentage portion of the fungus infested surface of each leaf was noted and the average per treatment was calculated in order to determine the fungicidal activity. This was done on the basis of the following formula: [formula]
The active compounds were applied in the form of a 20% concentration spray powder.

Helminthosporium gram = conditions: about 5 weeks
Procedure: Treatment of barley seeds infested with Helminthosporium gram
After emergence, the plants were subjected to illumination for 12 hours per day. After about 5 weeks the infested plants were counted and the total number of plants for each test were also counted. The active agents tested were used as pulverulent compositions.

Piricularia oryzae = format: in vivo; conditions: 5 days
[2] = concentration of active agent 0.001 (unit not given)
[3] = concentration of active agent 0.005 (unit not given)
[4] = concentration of active agent 0.025 (unit not given)
[5] = concentration of active agent 0.1 (percentages)

| Structure (SMILES) | root evaluation (1-4) (Pythium ultimum; 20 mg/l soil) | number of sound peas (Pythium ultimum; 20 mg/l soil) | root evaluation (1-4) (Pythium ultimum; 40 mg/l soil) | number of sound peas (Pythium ultimum; 40 mg/l soil) | root evaluation (1-4) (Pythium ultimum; 80 mg/l soil) | number of sound peas (Pythium ultimum; 80 mg/l soil) | number of sound peas (Fusarium avenaceum; 25 mg/l soil) | root evaluation (1-4) (Fusarium avenaceum; 25 mg/l soil) | number of sound peas (Fusarium avenaceum; 50 mg/l soil) | root evaluation (1-4) (Fusarium avenaceum; 50 mg/l soil) | number of sound peas (Fusarium avenaceum; 100 mg/l soil) | root evaluation (1-4) (Fusarium avenaceum; 100 mg/l soil) | % activity (Tilletia caries; 10 g active agent per 100 kg) | % activity (Tilletia caries; 20 g active agent per 100 kg) | % activity (Tilletia caries; 50 g active agent per 100 kg) | % activity (Helminthosporium gram; 50 g active agent per 100 kg) | % activity (Piricularia oryzae; [5]) | other results |
| --- | --- | --- | --- | --- | --- | --- | --- | --- | --- | --- | --- | --- | --- | --- | --- | --- | --- | --- |
| CC[S+]([O-])c1nnc(C#N)s1 (centres unmarked) [5-ethylsulfinyl-1,3,4-thiadiazole-2-carbonitrile] | 4 | 20 | 4 | 19 | 4 | 19 | 19 | 4 | 20 | 4 | 20 | 4 | 99.8% | 100% | 100% | 100% | – | % activity [1]: 100%; % activity (Plasmopara viticola; [2]): 89%; % activity (Plasmopara viticola; [3]): 96%; % activity (Plasmopara viticola; [4]): 100%; % activity (Helminthosporium gram; 10 g active agent per 100 kg): 98%; % activity (Helminthosporium gram; 20 g active agent per 100 kg): 100% |
| CC(C)S(=O)(=O)c1nnc(C(N)=O)s1 [5-isopropylsulfonyl-1,3,4-thiadiazole-2-carboxamide] | 4 | 17 | 4 | 18 | 4 | 19 | – | – | – | – | – | – | – | – | – | – | 40% | – |
| COCCCNC(=O)c1nnc(S(C)(=O)=O)s1 [5-methylsulfonyl-1,3,4-thiadiazole-2-carboxylic acid-(3-methoxypropyl)-amide] | 1 | 9 | 4 | 20 | 4 | 19 | – | – | – | – | – | – | – | – | – | – | 90% | – |
| C=CCNC(=O)c1nnc(S(C)(=O)=O)s1 [5-methylsulfonyl-1,3,4-thiadiazole-2-carboxylic acid-allylamide] | 4 | 19 | 4 | 18 | 4 | 18 | – | – | – | – | – | – | – | 100% | 100% | 100% | 94% | – |
| CCC[S+]([O-])c1nnc(C#N)s1 (centres unmarked) [5-propylsulfinyl-1,3,4-thiadiazole-2-carbonitrile] | 1 | 9 | 4 | 16 | 4 | 18 | 19 | 4 | 20 | 4 | 19 | 4 | 99% | 100% | 100% | 99% | – | % activity [1]: 99.3%; % activity (Plasmopara viticola; [2]): 100%; % activity (Plasmopara viticola; [3]): 100%; % activity (Plasmopara viticola; [4]): 100%; % activity (Helminthosporium gram; 20 g active agent per 100 kg): 87% |
| CCC[S+]([O-])c1nnc(C(=O)NCC)s1 (centres unmarked) [5-propylsulfinyl-1,3,4-thiadiazole-2-carboxylic acid-ethylamide] | – | – | – | – | – | – | – | – | – | – | – | – | – | – | – | 94% | 90% | – |
| CCCNC(=O)c1nnc([S+]([O-])CCC)s1 (centres unmarked) [5-propylsulfinyl-1,3,4-thiadiazole-2-carboxylic acid-propylamide] | – | – | – | – | – | – | – | – | – | – | – | – | – | 99.3% | 100% | 94% | 93% | – |
| CCCS(=O)(=O)c1nnc(C#N)s1 [5-propylsulfonyl-1,3,4-thiadiazole-2-carbonitrile] | – | – | – | – | – | – | 18 | 4 | 20 | 4 | 20 | 4 | 99% | 100% | 100% | – | 99.5% | – |
| C=CCNC(=O)c1nnc(S(=O)(=O)CCC)s1 [5-propylsulfonyl-1,3,4-thiadiazole-2-carboxylic acid-allylamide] | 3 | 13 | 4 | 15 | 4 | 15 | – | – | – | – | – | – | 99.3% | 99.7% | 100% | – | 93% | – |
| CCCS(=O)(=O)c1nnc(C(=O)OCC)s1 [5-propylsulfonyl-1,3,4-thiadiazole-2-carboxylic acid-ethylester] | – | – | – | – | – | – | – | – | – | – | – | – | – | – | – | – | 93% | – |
| CCCS(=O)(=O)c1nnc(C(=O)NC(C)C)s1 [5-propylsulfonyl-1,3,4-thiadiazole-2-carboxylic acid-isopropylamide] | 1 | 9 | 4 | 20 | 4 | 18 | 14 | 2 | 16 | 3 | 17 | 4 | 98% | 99.8% | 100% | – | 90% | – |
| CCC(C)S(=O)(=O)c1nnc(C#N)s1 (centres unmarked) [5-sec.-butylsulfonyl-1,3,4-thiadiazole-2-carbonitrile] | – | – | – | – | – | – | 20 | 4 | 19 | 4 | 20 | 4 | 75% | 91% | 98% | – | 99.5% | – |
| CN(CCC(N)CC(=O)NC1C=CC(n2ccc(N)nc2=O)OC1C(=O)O)C(=N)N (centres unmarked) [Blasticidin-S, reference compound] | – | – | – | – | – | – | – | – | – | – | – | – | – | – | – | – | 97% | % activity (Piricularia oryzae; concentration of active agent 0.02 (percentages)): 90% |
